For this assay, the target named is T1, 5-HT transporter (Rattus norvegicus, UniProt P31652).
T1 construct: from tissue; host or cells: rat brain (medulla and pons), synaptosomes, P2 fraction
The experiment in a line: 5-HT uptake inhibition, synaptosomes from rat brain (medulla and pons). The format is biochemical. From the text:
b) Method for Determining Noradrenalin and 5-HT Uptake Inhibition:
Synaptosomes from rat brain regions are freshly isolated for in vitro studies, as described in the publication “The isolation of nerve endings from brain” by E. G. Gray and V. P. Whittaker, J. Anatomy 96, pages 79-88, 1962. The corresponding literature description is hereby introduced as a reference and is deemed to be part of the disclosure.
The tissue (hypothalamus for the determination of noradrenalin uptake inhibition and medulla and pons for the determination of 5-HT uptake inhibition) is homogenised in ice-cooled 0.32 M sucrose (100 mg of tissue/1 mL) in a glass homogeniser with Teflon pestle using five complete up and down strokes at 840 revolutions/minute.
The homogenate is centrifuged at 4° C. for 10 minutes at 1000 g. After subsequent centrifugation at 17000 g for 55 minutes, the synaptosomes (P2 fraction) are obtained, which are resuspended in 0.32 M […] (0.5 mL/100 mg of original weight).
The particular uptake is measured in a 96-well microtitre plate. The volume is 250 μL and the incubation proceeds at room temperature (approx. 20-25° C.) under an O2 atmosphere.
The incubation time is 7.5 minutes for [^3H]-NA and 5 minutes for [^3H]-5-HT. The 96 samples are then filtered through a Unifilter GF/B® microtitre plate (Packard) and washed with 200 mL of incubated buffer using a “Brabdel MPXRI-96T Cell-Harvester”. The Unifilter GF/B plate is dried for 1 hour at 55° C. The plate is then sealed with a Back Seal® (Packard) and 35 μL of scintillation fluid are added per well (Ultima Gold®, Packard). After sealing with a top Seal® (Packard) and establishing an equilibrium (around 5 hours), radioactivity is determined in a “Trilux 1450 Microbeta” (Wallac).
The quantity of protein used in the above determination corresponds to the values known from the literature, as for example described in “Protein measurement with the folin phenol reagent”, Lowry et al., J. Biol. Chem., 193, 265-275, 1951.
A detailed description of the method may additionally be found in the literature, for example in M. Ch. Frink, H.-H. Hennies, W. Engelberger, M. Haurand and B. Wilffert (1996) Arzneim.-Forsch./Drug Res. 46 (III), 11, 1029-1036.
The following characteristics were determined for the NA or 5-HT transporter: […]

This note sets out measurements from patent publication US8048879B2, “Substituted 4,5,6,7-tetrahydro-isoxazolo[4,5-c]pyridine compounds and use thereof for producing medicaments” (Gruenenthal GmbH, priority 2005, dated 2011).

Like-named read-outs stand apart in the source and are kept apart here.

T1 sequence (P31652 whole entry): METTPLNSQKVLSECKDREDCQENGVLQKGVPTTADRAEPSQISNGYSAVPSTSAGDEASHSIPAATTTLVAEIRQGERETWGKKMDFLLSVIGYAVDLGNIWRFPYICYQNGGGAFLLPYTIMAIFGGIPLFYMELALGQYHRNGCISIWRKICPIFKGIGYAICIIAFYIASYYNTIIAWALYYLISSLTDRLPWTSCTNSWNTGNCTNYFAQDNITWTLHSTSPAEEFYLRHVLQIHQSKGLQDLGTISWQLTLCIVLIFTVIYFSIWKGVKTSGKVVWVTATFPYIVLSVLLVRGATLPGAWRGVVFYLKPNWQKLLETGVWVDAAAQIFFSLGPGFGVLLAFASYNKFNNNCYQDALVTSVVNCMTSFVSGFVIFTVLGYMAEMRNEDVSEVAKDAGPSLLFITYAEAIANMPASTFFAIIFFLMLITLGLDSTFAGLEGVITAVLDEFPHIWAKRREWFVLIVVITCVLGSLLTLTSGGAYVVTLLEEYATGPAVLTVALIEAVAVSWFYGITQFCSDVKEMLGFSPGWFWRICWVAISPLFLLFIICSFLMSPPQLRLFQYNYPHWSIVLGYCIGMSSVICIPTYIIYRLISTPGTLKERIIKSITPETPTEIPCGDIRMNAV

`COc1ccc(OCCNC(=O)c2noc3c2CN(S(=O)(=O)c2ccccc2)CC3)cc1` [Example 106, 5-benzenesulfonyl-4,5,6,7-tetrahydro-isoxazolo[4,5-c]pyridine-3-carboxylic acid [2-(4-methoxy-phenoxy)-ethyl] amide]: 10 µM produced 76% inhibition.
Turning to `CN(CCCNC(=O)c1noc2c1CN(S(=O)(=O)c1ccc(OC(F)(F)F)cc1)CC2)c1ccccc1` [Example 80, 5-(4-trifluoromethoxy-benzenesulfonyl)-4,5,6,7-tetrahydro-isoxazolo[4,5-c]pyridine-3-carboxylic acid [3-(methylphenyl-amino)-propyl] amide], the inhibition (commonly the change of the read-out against control, counted positive when it falls) at 10 µM stood at 65%.
As for `O=C(NCCN1CCCC1)c1noc2c1CN(C(=O)COc1cccc(Cl)c1)CC2` [Example 94, 5-[2-(3-chlorophenoxy)-acetyl]-4,5,6,7-tetrahydro-isoxazolo[4,5-c]pyridine-3-carboxylic acid (2-pyrrolidin-1-yl-ethyl) amide], the “5-HT uptake (rat), 10 μM, % inhibition” value (10 µM) was determined as 94%.
In the case of `O=C(NC1CCCC1)c1noc2c1CN(C(=O)NCc1ccc(F)cc1)CC2` [Example 2, 6,7-dihydro-4H-isoxazolo[4,5-c]pyridine-3,5-dicarboxylic acid 3-cyclopentyl amide 5-(4-fluorobenzyl amide)], the “5-HT uptake (rat), 10 μM, % inhibition” value was 41%.
Turning to `CC(=O)c1cccc(NC(=O)N2CCc3onc(C(=O)NCc4ccc(C)o4)c3C2)c1` [Example 15, 6,7-dihydro-4H-isoxazolo[4,5-c]pyridine-3,5-dicarboxylic acid 5-[(3-acetyl-phenyl) amide] 3-[(5-methyl-furan-2-ylmethyl) amide]], the “5-HT uptake (rat), 10 μM, % inhibition” value was 58%.
On the same count and under the same terms, the result for `CCOC(=O)CCNC(=O)c1noc2c1CN(C(=O)Nc1cc(F)ccc1F)CC2` [Example 6] reads 43%.
With `Cc1ccc(S(=O)(=O)N2CCc3onc(C(=O)NCc4ccc(S(N)(=O)=O)cc4)c3C2)cc1` [Example 56, 5-(toluene-4-sulfonyl)-4,5,6,7-tetrahydro-isoxazolo[4,5-c]pyridine-3-carboxylic acid 4-sulfamoyl-benzyl amide], the “5-HT uptake (rat), 10 μM, % inhibition” value (10 µM) came out at 96%.
For `CCOC(=O)CCNC(=O)c1noc2c1CN(C(=S)NCC1CCCCC1)CC2` [Example 134, 3-{[5-(cyclohexylmethyl-thiocarbamoyl)-4,5,6,7-tetrahydro-isoxazolo[4,5-c]pyridine-3-carbonyl]-amino}-propionic acid ethyl ester], testing at 10 µM gave an inhibition of 61%.
In turn, `CCOC(=O)CCNC(=O)c1noc2c1CN(C(=O)c1ccc(OC)cc1)CC2` [Example 98, 3-{[5-(4-methoxy-benzoyl)-4,5,6,7-tetrahydro-isoxazolo[4,5-c]pyridine-3-carbonyl]-amino}-propionic acid ethyl ester] gave an inhibition at 10 µM of 75%.
Same read-out and setting: with `CN(C)CCNC(=O)c1noc2c1CN(C(=O)c1cc(C(C)(C)C)nn1C)CC2` [Example 41, 5-(5-tert-butyl-2-methyl-2H-pyrazole-3-carbonyl)-4,5,6,7-tetrahydro-isoxazolo[4,5-c]pyridine-3-carboxylic acid (2-dimethylamino-ethyl) amide] the figure was 76%.
In the case of `O=C(c1noc2c1CN(S(=O)(=O)c1ccc(F)cc1)CC2)N1CC=C(c2ccc(F)cc2)CC1` [Example 42, [5-(4-fluoro-benzenesulfonyl)-4,5,6,7-tetrahydro-isoxazolo[4,5-c]pyridin-3-yl]-[4-(4-fluorophenyl)-3,6-dihydro-2H-pyridin-1-yl]-methanone], the inhibition at 10 µM came to 69%.
Still for that read-out and setting: with `COc1ccc(S(=O)(=O)N2CCc3onc(C(=O)NC(CCC(=O)OC(C)(C)C)C(N)=O)c3C2)cc1` (centres unmarked) [Example 88, 4-carbamoyl-4-{[5-(4-methoxy-benzenesulfonyl)-4,5,6,7-tetrahydro-isoxazolo[4,5-c]pyridine-3-carbonyl]-amino}-butanoic acid tert-butyl ester] the figure was 62%.
With `CCCCOc1ccc(NC(=O)N2CCc3onc(C(=O)NCCOC)c3C2)cc1` [Example 7, 6,7-dihydro-4H-isoxazolo[4,5-c]pyridine-3,5-dicarboxylic acid 5-[(4-butoxy-phenyl) amide] 3-[(2-methoxy-ethyl) amide]], the “5-HT uptake (rat), 10 μM, % inhibition” value turned out to be 44%.
`CN(C)CCNC(=O)c1noc2c1CN(C(=O)CCCOc1ccccc1)CC2` [Example 99, 5-(4-phenoxy-butyryl)-4,5,6,7-tetrahydro-isoxazolo[4,5-c]pyridine-3-carboxylic acid (2-dimethylamino-ethyl) amide] showed an inhibition at 10 µM of 69%.
Same read-out and setting: the result for `O=C(NCCN1CCCC1)c1noc2c1CN(C(=O)COCc1ccccc1)CC2` [Example 64, 5-(2-benzyloxy-acetyl)-4,5,6,7-tetrahydro-isoxazolo[4,5-c]pyridine-3-carboxylic acid (2-pyrrolidin-1-yl-ethyl) amide] reads 77%; that for `COCCCNC(=O)c1noc2c1CN(S(=O)(=O)c1ccc(OC)cc1)CC2` [Example 62, 5-(4-methoxy-benzenesulfonyl)-4,5,6,7-tetrahydro-isoxazolo[4,5-c]pyridine-3-carboxylic acid (3-methoxy-propyl) amide], 67%.
For `O=C(NCC1CC1)c1noc2c1CN(C(=S)NCc1ccc(Cl)cc1)CC2` [Example 129, 5-(4-chloro-benzylthiocarbamoyl)-4,5,6,7-tetrahydro-isoxazolo[4,5-c]pyridine-3-carboxylic acid cyclopropylmethyl amide], at 10 µM the inhibition was 75%.
For `O=C(NCCN1CCCC1)c1noc2c1CN(C(=O)c1ccc(Cl)nc1)CC2` [Example 77, 5-(6-chloro-pyridine-3-carbonyl)-4,5,6,7-tetrahydro-isoxazolo[4,5-c]pyridine-3-carboxylic acid (2-pyrrolidin-1-yl-ethyl) amide], the inhibition at 10 µM is 62%.
`COc1ccc(S(=O)(=O)N2CCc3onc(C(=O)NCc4cccc(OC)c4OC)c3C2)cc1` [Example 95, 5-(4-methoxy-benzenesulfonyl)-4,5,6,7-tetrahydro-isoxazolo[4,5-c]pyridine-3-carboxylic acid 2,3-dimethoxy-benzyl amide] yielded an inhibition at 10 µM of 68%.
On the same count and under the same terms, the result for `CCCCOc1ccc(S(=O)(=O)N2CCc3onc(C(=O)NCC(C)C)c3C2)cc1` [Example 114, 5-(4-butoxy-benzenesulfonyl)-4,5,6,7-tetrahydro-isoxazolo[4,5-c]pyridine-3-carboxylic acid isobutyl amide] reads 85%; that for `COc1ccc(CC(=O)N2CCc3onc(C(=O)NCc4ccccc4)c3C2)cc1` [Example 79, 5-[2-(4-methoxyphenyl)-acetyl]-4,5,6,7-tetrahydro-isoxazolo[4,5-c]pyridine-3-carboxylic acid benzyl amide], 71%; that for `O=C(NCc1ccc(C(F)(F)F)c(F)c1)c1noc2c1CN(S(=O)(=O)c1ccccc1)CC2` [Example 113, 5-benzenesulfonyl-4,5,6,7-tetrahydro-isoxazolo[4,5-c]pyridine-3-carboxylic acid 3-fluoro-4-trifluoromethyl-benzyl amide], 83%.
Take `COCCNC(=O)c1noc2c1CN(C(=O)Nc1cccc(OC)c1)CC2` [Example 1, 6,7-dihydro-4H-isoxazolo[4,5-c]pyridine-3,5-dicarboxylic acid 3-[(2-methoxy-ethyl) amide] 5-[(3-methoxyphenyl) amide]]: the “5-HT uptake (rat), 10 μM, % inhibition” value is listed as 47%.
The molecule `O=C(O)COCC(=O)N1CCc2onc(C(=O)NCc3cccs3)c2C1` [Example 30, (2-oxo-2-{3-[(thiophen-2-ylmethyl)-carbamoyl]-6,7-dihydro-4H-isoxazolo[4,5-c]pyridin-5-yl}-ethoxy)acetic acid] displayed an inhibition at 10 µM of 57%.
Molecule `O=C(NCCc1ccccc1Cl)c1noc2c1CN(S(=O)(=O)c1cc(Cl)ccc1Cl)CC2` [Example 52, 5-(2,5-dichloro-benzenesulfonyl)-4,5,6,7-tetrahydro-isoxazolo[4,5-c]pyridine-3-carboxylic acid [2-(2-chlorophenyl)-ethyl] amide] yielded an inhibition at 10 µM of 83%.
In turn, `CC(C)(C)OC(=O)NC(COCc1ccccc1)C(=O)N1CCc2onc(C(=O)NCc3cccnc3)c2C1` (centres unmarked) [Example 27, (1-benzyloxymethyl-2-oxo-2-{3-[(pyridin-3-ylmethyl)-carbamoyl]-6,7-dihydro-4H-isoxazolo[4,5-c]pyridin-5-yl}-ethyl)-carbamic acid tert-butyl ester] gave an inhibition at 10 µM of 41%.
